From patent US20160108381A1, “DNA POLYMERASES AND MUTANTS THEREOF” (LIFE TECHNOLOGIES CORPORATION, priority 2001, published 2016)

Legend:
[1] = biological target: T1, Clostridium thermosulfurogenes DNA polymerase, N-terminal His6 tag (Cth-His), SEQ ID NO:15 (Thermoanaerobacterium thermosulfurigenes, UniProt Q6X9R5); assay: Steady-state kinetics, DNA- and RNA-dependent polymerase activity
T1 sequence (Q6X9R5 with tags, fused parts or gaps): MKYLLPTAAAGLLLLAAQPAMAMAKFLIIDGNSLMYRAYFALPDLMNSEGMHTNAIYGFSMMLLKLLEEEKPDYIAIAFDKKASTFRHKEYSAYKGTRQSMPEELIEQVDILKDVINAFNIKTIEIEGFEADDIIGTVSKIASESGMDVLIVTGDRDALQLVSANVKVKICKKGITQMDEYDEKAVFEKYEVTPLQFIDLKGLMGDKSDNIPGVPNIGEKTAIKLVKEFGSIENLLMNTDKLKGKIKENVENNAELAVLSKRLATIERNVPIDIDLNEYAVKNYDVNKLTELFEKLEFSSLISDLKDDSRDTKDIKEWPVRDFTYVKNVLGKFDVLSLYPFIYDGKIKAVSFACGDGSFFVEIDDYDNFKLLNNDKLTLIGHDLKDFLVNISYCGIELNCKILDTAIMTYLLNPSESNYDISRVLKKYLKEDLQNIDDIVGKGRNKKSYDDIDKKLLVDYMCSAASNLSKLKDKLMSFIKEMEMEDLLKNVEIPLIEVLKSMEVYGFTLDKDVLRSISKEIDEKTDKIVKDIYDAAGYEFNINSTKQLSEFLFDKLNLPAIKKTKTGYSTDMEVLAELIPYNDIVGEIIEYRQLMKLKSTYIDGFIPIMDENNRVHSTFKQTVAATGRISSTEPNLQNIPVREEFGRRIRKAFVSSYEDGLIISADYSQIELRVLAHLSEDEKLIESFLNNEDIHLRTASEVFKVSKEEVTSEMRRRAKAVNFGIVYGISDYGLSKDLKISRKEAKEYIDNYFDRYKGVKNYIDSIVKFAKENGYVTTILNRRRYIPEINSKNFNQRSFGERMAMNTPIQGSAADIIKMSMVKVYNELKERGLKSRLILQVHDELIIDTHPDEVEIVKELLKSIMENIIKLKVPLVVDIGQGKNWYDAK
Excerpt: (§1) Subcloning of genes for Cst and Cth DNA polymerases. In order to improve expression and simplify purification of Cst and Cth DNA polymerase, the genes were subcloned downstream of a T7 promoter and an amino-terminal His6 tag sequence was introduced using Gateway cloning technology (Invitrogen Corporation, Carlsbad, Calif.). The sequence of the DNA oligonucleotide used at the 5′ end of the Cst gene was: 5′-[…] ATAGAC 3′ (SEQ ID NO:37). The sequence of the DNA oligonucleotide used at the 5′ end of the Cth gene was: 5′-[…] […]-3′ (SEQ ID NO:38). The sequence of the DNA oligonucleotide used at the 3′ end of each gene was the same: 5′-[…] […] 3′ (SEQ ID NO:39). Purified pET26B plasmid DNA (Novagen Inc., Madison, Wis.) bearing the gene for Cst or Cth DNA polymerase was amplified by PCR utilizing the primers listed above and Platinum Taq HiFi DNA polymerase (Invitrogen Corporation, Carlsbad, Calif.). PCR products purified by agarose gel electrophoresis were cloned into Gateway vector pDON21 and transferred by recombination into vector pDEST17. […] Each final recombinant plasmid was transformed into the E. coli expression host BL21-AI (Invitrogen Corporation, Carlsbad, Calif.).
(§2) Purification of Cst-His and Cth-His DNA polymerases. E. coli cells (BL21AI) bearing the plasmid pDEST17 with the gene for Cst-His or Cth-His DNA polymerase were grown in 2.8-1 Fembach flasks in LB broth containing 50 μg/ml ampicillin at 37° C. After the culture reached an A590 of 1.0, expression of DNA polymerase was induced by the addition of 0.2% arabinose for 3 hr. Cells were harvested by centrifugation and stored at −70° C.
(§3) Steady-state kinetic measurements.
(§4) The assays were conducted in the presence of 1.5 mM MgCl2 at 55° C. for all enzymes except the Caldibacillus cellulovorans CompA.2 enzyme where 2 mM MgCl2 and 45° C. were used.

[2] = biological target: T2, Clostridium stercorarium DNA polymerase, N-terminal His6 tag (Cst-His), SEQ ID NO:14 (Thermoclostridium stercorarium, UniProt L7VMI6); assay: as above
T2 sequence (L7VMI6 with tags, fused parts or gaps): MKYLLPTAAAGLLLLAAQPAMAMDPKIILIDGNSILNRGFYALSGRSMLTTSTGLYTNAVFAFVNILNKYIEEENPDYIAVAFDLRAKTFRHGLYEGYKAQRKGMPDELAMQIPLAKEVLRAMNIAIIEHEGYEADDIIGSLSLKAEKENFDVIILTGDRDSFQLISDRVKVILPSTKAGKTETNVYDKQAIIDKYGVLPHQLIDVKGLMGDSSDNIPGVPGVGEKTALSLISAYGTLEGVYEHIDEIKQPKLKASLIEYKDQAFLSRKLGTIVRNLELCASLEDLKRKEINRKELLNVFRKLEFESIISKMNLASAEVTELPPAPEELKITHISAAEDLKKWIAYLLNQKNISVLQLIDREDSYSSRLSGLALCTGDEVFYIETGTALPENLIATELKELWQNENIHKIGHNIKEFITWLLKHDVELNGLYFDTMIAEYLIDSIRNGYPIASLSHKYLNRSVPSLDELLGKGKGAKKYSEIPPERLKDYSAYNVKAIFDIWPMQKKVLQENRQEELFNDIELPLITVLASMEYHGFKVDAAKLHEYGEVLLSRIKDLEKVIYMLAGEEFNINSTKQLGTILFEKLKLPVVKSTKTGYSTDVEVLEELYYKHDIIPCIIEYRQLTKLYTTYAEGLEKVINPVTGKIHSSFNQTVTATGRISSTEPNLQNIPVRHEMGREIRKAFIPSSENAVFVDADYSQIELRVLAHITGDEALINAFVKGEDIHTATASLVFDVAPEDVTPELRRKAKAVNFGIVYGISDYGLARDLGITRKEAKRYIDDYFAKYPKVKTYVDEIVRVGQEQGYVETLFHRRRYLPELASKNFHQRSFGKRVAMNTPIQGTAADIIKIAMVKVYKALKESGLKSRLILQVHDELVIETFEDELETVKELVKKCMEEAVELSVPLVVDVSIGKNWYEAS
Excerpt: as §1, §2, §3, §4

[3] = Table 34, RNA template, 2 mM MgCl2, 45 °C per footnote
[4] = read-out: Km RNA (dTTP), Table 34, RNA template, 2 mM MgCl2, 45 °C per footnote

Cc1cn([C@H]2C[C@H](O)[C@@H](COP(=O)(O)OP(=O)(O)OP(=O)(O)O)O2)c(=O)[nH]c1=O [dTTP]
Kcat RNA (dTTP) [1, 3]: 0.94 s⁻¹
kCAT Ratio (RNA/DNA) ([1]; Table 40, dTTP, 55 °C): 0.57
Km [1, 4]: 68 µM
Kcat RNA (dTTP) [2, 3]: 19.2 s⁻¹
kCAT Ratio (RNA/DNA) ([2]; Table 40, dTTP, 55 °C): 2.2
Km [2, 4]: 76 µM
